Key:
[1] = biological target: T1, BMPR-2 receptor extra cellular domain (Homo sapiens, UniProt Q13873); assay: Radio-ligand receptor binding assay, competition with 125I-labeled TDF-1 for BMPR-2; conditions: competitive binding, FIG. 4
T1 construct: immobilized BMPR-2 receptor extra cellular domain (ECD)
T1 sequence (Q13873 27-150 limits assumed): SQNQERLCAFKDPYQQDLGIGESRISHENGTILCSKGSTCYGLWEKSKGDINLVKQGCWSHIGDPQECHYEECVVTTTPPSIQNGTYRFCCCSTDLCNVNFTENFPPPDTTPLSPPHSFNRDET
Excerpt: (§1) General protocol: These assays are based on competition between ^125I-labeled TDF-1 (BMP-7 or OP-1) and candidate TDFRP compounds or unlabeled TDF-1 for binding to respective receptors (ALK-3, ALK-6 or BMPR-2). In brief, the procedure involves immobilization of receptor on 96 well Removawell plates, blocking the wells with 3% BSA in PBS and subsequently washing the wells. Increasing concentrations of unlabeled TDF-1 or TDFRP compounds or control (unlabeled TDF-1) prepared in binding buffer are then added. Incubate plate for 1 hour at room temperature, and then add a fixed amount of ^125I-labeled TDF-1 (250,000 to 350,000 cpm) to the wells and further incubate in cold (4° C.) for 20 hours. Aspirate the contents of the wells and wash the wells four times with a wash buffer, and count the receptor bound ^125I-labeled TDF-1 in an auto gamma counter. B. HK-2 Cell Culture and Determination of Cytokine Production

[2] = biological target: T2, BMPR-1A (ALK3) receptor extra cellular domain (Homo sapiens, UniProt P36894); assay: Radio-ligand receptor binding assay, competition with 125I-labeled TDF-1 for ALK-3; conditions: competitive binding assay, FIG. 2
T2 construct: immobilized BMPR-1A receptor extra cellular domain (ECD)
T2 sequence (P36894 24-152 limits assumed, species assumed): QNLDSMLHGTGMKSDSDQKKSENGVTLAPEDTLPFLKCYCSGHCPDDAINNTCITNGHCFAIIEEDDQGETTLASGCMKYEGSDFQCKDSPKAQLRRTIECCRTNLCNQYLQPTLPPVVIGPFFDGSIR
Excerpt: as §1

HK-2 cells = assay: Anti-inflammatory activity in HK-2 cell culture (FIG. 11-13); assay type: cell-based, human; conditions: marker not stated
Protocol: (§2) The immortalized PTEC-derived HK-2 (Human Kidney-2) cells (ATCC number CRL-2190) were grown in serum-free keratinocyte medium (GIBCO number 17005-042) supplemented with epidermal growth factor (EGF: 5 ng/mL) and bovine pituitary extract (40 ug/mL) for 48 hours as described previously (Ryan et al (1994) Kidney International 45:48-57). Cells were transferred to 24-well plates at a density of 3×10^5 cells per well. After 24 hours, cells were incubated with fresh medium containing TNF-alpha (5 ng/mL) for 20 hours. Controls received medium alone. Then cells were washed twice with fresh culture medium and further incubated with culture medium alone (medium control, and TNF control wells) or TDF-1 at three different concentrations (40, 200 or 1000 ng/mL) or TDFRP compounds at three different concentrations (4, 20 or 100 uM) for sixty hours. During incubation, cells were kept in a 5% CO2 humid atmosphere at 37° C. At the end of the incubation, the media were removed and stored frozen until assayed. The concentrations of IL-6 and sICAM-in culture supernatants were measured by specific ELISA.

[3] = system: IL-6 in HK2 human transformed kidney proximal tubule cells; assay: IL-6 level in HK-2 cell medium after TNF-alpha stimulation (ELISA); assay type: cell-based; conditions: after TNF-alpha inflammatory stimulation, FIG. 6, FIG. 10
Protocol: as §2
Dilute the capture antibody to the working concentration in PBS, pH 7.4 without carrier protein. Add 61 uL of stock antibody (360 ug/mL) to 10.939 mL of PBS, gently vertex. Immediately coat a 96 well microplate (Immulon 4 HBX) with 100 uL per well of the diluted capture antibody. Seal the plate and incubate it overnight in cold (4° C.). (PBS: 8.1 mM Na2HPO4, 1.5 mM KH2PO4, 137 mM NaCl, 2.7 mM KCl, pH 7.4, 0.2 um filtered). Next day empty the wells and wash the wells three times, each time using 340 uL of wash buffer per well. (wash buffer: PBS, pH 7.4 containing 0.05% Tween-20).
Prepare blocking buffer, 35 mL per plate. To prepare blocking buffer, add 0.35 grams of BSA and 1.75 grams of sucrose to 35 mL of PBS, pH 7.4, and mix the contents gently. Add 300 uL of blocking buffer to each well and incubate the plate for a minimum of 1 hour at room temperature. Empty the wells and wash wells three times, each time using 340 uL of wash buffer per well.
Prepare a 8 point standard curve using 2-fold serial dilutions in reagent diluent. Dilute stock standard, recombinant IL-6, 70 ng/mL to an initial concentration of 2400 ng/mL in reagent diluent. Then further dilute the standard to a working range, 1200, 600, 300, 150, 75, 37.5, 18.75 and 9.375 ng/mL using reagent diluent. (to prepare reagent diluent, add 0.4 grams of BSA to 40 mL of PBS, pH 7.4 and gently vertex). Also dilute 24 uL of each sample medium (from HK-2 cell cultures) with 376 uL of reagent diluent. Add 100 uL of standard or sample per well, seal the plate and incubate it overnight in cold (4° C.).
Next day, empty the wells and wash wells three times, each time using 340 uL of wash buffer per well. […]

Substance | anti-inflammatory activity (HK-2 cells) | also measured
CIVNSSDDFLCKKYRS [SEQ ID NO:16, negative control peptide] | – | specific binding to BMPR-2 / inhibition of specific binding of labeled TDF-1 to BMPR-2 receptor [1]: does not inhibit; specific binding to ALK3 / inhibition of specific binding of labeled TDF-1 to ALK3 receptor [2]: does not inhibit
CLFDDSSNVICKKYRS [SEQ ID NO:15] | very weak anti-inflammatory activity | –
CYFDDNSNVICKKYRS [SEQ ID NO:42] | no anti-inflammatory activity | –
CYFDDSSNVICK [SEQ ID NO:21] | no anti-inflammatory activity | specific binding to ALK3 / inhibition of specific binding of labeled TDF-1 to ALK3 receptor [2]: specifically binds
CYFDDSSNVICKK [SEQ ID NO:20] | no anti-inflammatory activity | –
CYFDDSSQVICKKYRS [SEQ ID NO:43] | – | effect on level of IL-6 in HK2 cell medium [3]: brings the IL-6 level down below the basal level
TP2.006: peptide printed as SEQ ID NO:45 in FIG. 12 legend; conflicts with TP2.003 = SEQ ID NO:45 in b271 (CYFDDSSNVLCKKYRS) | no anti-inflammatory activity | –

From patent US7482329B2, “Single domain TDF-related compounds and analogs thereof” (Thrasos Therapeutics, priority 2002, dated 2009)
